Assay results as given in patent publication US6939863B2, “Prevention of atherosclerosis and restenosis” (priority 2002, dated 2005).
Where two headings read alike, the source gives them in different places.

Experiments:
[1] = tested on: type I and type III collagen expression in rat vascular smooth muscle cells; conditions: 5 millimolar
Description: The expression of smooth muscle cell collagen was determined by Northern blot analysis at the RNA level and Western blot analysis on the protein level. Total RNA (10 micrograms) from vascular smooth muscle cells grown in the media containing 0 (Control), 0.5 millimolar, 2.5 millimolar, or 5 millimolar propylthiouracil (PTU) for 24 hours was electrophoresed on a 1% agarose gel. The levels of pro-α1(I) collagen mRNA were measured as radioactivities, normalized relative to the density of 18S and 28S rRNA (FIG. 12, Panel A).
The effects of lower physiological concentrations of propylthiouracil on the expression of type I and type III collagen genes was also studied at the RNA level. Northern blot analysis was carried out on total RNA from rat vascular smooth muscle cells grown for 24 to 72 hours (1 to 3 days) in media containing 0 (Control, C), 0.38 millimolar, 0.5 millimolar, or 0.76 millimolar propylthiouracil. Type I collagen (FIG. 13, Panel A) and type III collagen (FIG. 13, Panel B) mRNA radioactivity levels were normalized relative to 18S and 28S rRNA (FIG. 13, Panel C).
Type I collagen (FIG. 14, Panel A) and type III collagen (FIG. 14, Panel B) protein levels were normalized relative to the protein levels of tubulin. […]

[2] = tested on: rat vascular smooth muscle cells
in vivo = conditions: male, New Zealand White, rabbit, 0.1 % in the drinking water, Serum PTU at sacrifice, 0.1% propylthiouracil in drinking water
Description: Serum propylthiouracil levels were measured by HPLC with mephenoxalone (Tung Yang Chemical Industries, Taiwan) as an internal standard. One hundred microliters of serum was placed into a tube containing 25 microliters of mephenoxalone (Tung Yang Chemical Industries, Taiwan) at 1 milligram per milliliter. All tubes were treated with 25 microliters of 1 molar K2HPO4 and mixed well by vortexing. The contents of each tube were extracted with 2 milliliters of methyl tert-butyl ether (MTBE) (Sigma, St. Louis, Mo.). Tube contents were mixed and centrifuged for 10 minutes at 3000 rpm at 25° C. The supernatant was transferred to a glass tube, dried under nitrogen gas, and reconstituted with 300 microliters of mobile phase. HPLC was performed by using a Hitachi HPLC system (Hitachi, Japan). An ODS column (Cosmosil 5C18-MS, 4.6 millimeters×250 millimeters, 5 micrometers, Nacalai Tesque, Japan) was used in this chromatographic separation, as well as an ultraviolet detector detecting at 275 nanometers. The mobile phase (acetonitrile/water/phosphoric acid, 40/60/0.5, vol/vol/vol) was degassed and filtered before use. The column flow rate was 1.0 milliliter per minute and column temperature was maintained at 40° C.

[3] = tested on: rat vascular smooth muscle cells; conditions: for Pyknosis or karyorhexis (features of apoptosis), propidium iodide-stained cells: 5 millimolar, 24 hours

CCCc1cc(=O)[nH]c(=S)[nH]1 [Propylthiouracil, 6-n-propyl-2-thiouracil]
Staining density for type I collagen (immunocytochemistry) [1]: decrease | Staining density for type III collagen (immunocytochemistry) [1]: decrease | Cytotoxic effect on VSMCs by trypan blue exclusion test ([2]; 24 hours): no cytotoxic effect | Number of cells that excluded trypan blue ([2]; 24 hours treatment, n=5): 94.4±0.4% | concentration at 12 weeks (in vivo; 2% cholesterol diet): 1330 ± 1200 ng/mL | concentration at 12 weeks (in vivo; normal chow): 1570 ± 700 ng/mL | Pyknosis or karyorhexis (features of apoptosis), propidium iodide-stained cells [3]: did not cause any pyknosis or karyorhexis | Pyknosis or karyorhexis (features of apoptosis), propidium iodide-stained cells ([3]; listed as propylthiouracil): did not cause pyknosis or karyorhexis | TUNEL-positive cells in VSMCs ([3]; propylthiouracil-treated VSMCs): absent
